Measurements taken from ChEMBL document CHEMBL1201862, “PubChem BioAssay data set” (2004).
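All cell lines were grown in 96-well plates and treated with compound for 48 hours. The concentration for 50% growth inhibition is given as GI50.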 Calls of active or inactive are those of the source. Cut-off read from the data, not from the text of the source: active = GI50 up to about 1.1 µM and inactive = higher.

How the values were obtained:
Assay in all cases: inhibition of tumour cell growth, NCI panel, 48 h
MDA-MB-435 = test system: MDA-MB-435
HT-29 = test system: HT-29
RXF 393 = test system: RXF 393
TK-10 = test system: TK-10
SR = test system: SR
CAKI-1 = test system: CAKI-1
IGROV-1 = test system: IGROV-1
SK-MEL-2 = test system: SK-MEL-2
HCT-116 = test system: HCT-116
OVCAR-3 = test system: OVCAR-3
BT-549 = test system: BT-549
SF-539 = test system: SF-539
OVCAR-5 = test system: OVCAR-5
NCI/ADR-RES = test system: NCI/ADR-RES
Malme-3M = test system: Malme-3M
U-251 = test system: U-251
SK-MEL-5 = test system: SK-MEL-5
UACC-257 = test system: UACC-257
EKVX = test system: EKVX
Hs-578T = test system: Hs-578T

Row | SMILES | GI50 (MDA-MB-435) | GI50 (HT-29) | GI50 (RXF 393) | GI50 (TK-10) | GI50 (SR) | GI50 (CAKI-1) | GI50 (IGROV-1) | GI50 (SK-MEL-2) | GI50 (HCT-116) | GI50 (OVCAR-3) | GI50 (BT-549) | GI50 (SF-539) | GI50 (OVCAR-5) | GI50 (NCI/ADR-RES) | GI50 (Malme-3M) | GI50 (U-251) | GI50 (SK-MEL-5) | GI50 (UACC-257) | GI50 (EKVX) | GI50 (Hs-578T)
1 | CC1C(=O)N=C2C(=CN(Cc3ccccc3)c3ccccc32)C(=O)N1C (stereo unspecified) | > 100 µM (inactive) | > 100 µM (inactive) | > 100 µM (inactive) | > 100 µM (inactive) | 4.26 µM (inactive) | > 100 µM (inactive) | > 100 µM (inactive) | > 100 µM (inactive) | > 100 µM (inactive) | > 100 µM (inactive) | > 100 µM (inactive) | > 100 µM (inactive) | > 100 µM (inactive) | > 100 µM (inactive) | > 100 µM (inactive) | > 100 µM (inactive) | > 100 µM (inactive) | > 100 µM (inactive) | – | –
2 | CC[N+](C)(CC)CCN1C(=O)c2ccccc2S1(=O)=O | > 100 µM (inactive) | > 100 µM (inactive) | > 100 µM (inactive) | > 100 µM (inactive) | – | > 100 µM (inactive) | > 100 µM (inactive) | > 100 µM (inactive) | > 100 µM (inactive) | > 100 µM (inactive) | > 100 µM (inactive) | > 100 µM (inactive) | > 100 µM (inactive) | > 100 µM (inactive) | > 100 µM (inactive) | > 100 µM (inactive) | > 100 µM (inactive) | > 100 µM (inactive) | > 100 µM (inactive) | > 100 µM (inactive)
3 | CC(C)(Cl)C(Br)CC/C(=C/CBr)CBr.CC(C)(Cl)C(Br)CC/C(=C\CBr)CBr (stereo unspecified) | 1.87 µM (inactive) | 1.95 µM (inactive) | 4.22 µM (inactive) | 4.1 µM (inactive) | – | – | 2.28 µM (inactive) | 4.98 µM (inactive) | 1.79 µM (inactive) | 2.45 µM (inactive) | 2.77 µM (inactive) | 2.47 µM (inactive) | 13.2 µM (inactive) | 2.86 µM (inactive) | 1.78 µM (inactive) | 2 µM (inactive) | 2.87 µM (inactive) | 4.37 µM (inactive) | 24.8 µM (inactive) | 4.69 µM (inactive)
4 | COC(=O)c1ccccc1C1CN=NC12Cc1cc(C)cc(C)c1C2=O (stereo unspecified) | 36.4 µM (inactive) | 23.4 µM (inactive) | > 100 µM (inactive) | 60.4 µM (inactive) | – | 36.8 µM (inactive) | > 100 µM (inactive) | > 100 µM (inactive) | 44.1 µM (inactive) | 96.6 µM (inactive) | 63.4 µM (inactive) | > 100 µM (inactive) | > 100 µM (inactive) | 38.4 µM (inactive) | 97.9 µM (inactive) | 64.1 µM (inactive) | 31.3 µM (inactive) | 34 µM (inactive) | 70 µM (inactive) | 86.3 µM (inactive)
5 | O=C(CCCCCCCCC(=O)NN1C(=O)/C(=C\c2ccc(O)c(O)c2)SC1c1ccc(Cl)cc1)NN1C(=O)/C(=C\c2ccc(O)c(O)c2)SC1c1ccc(Cl)cc1 (stereo unspecified) | 66.8 µM (inactive) | 57.7 µM (inactive) | 15.8 µM (inactive) | 25.8 µM (inactive) | 2.08 µM (inactive) | 9.12 µM (inactive) | 2.83 µM (inactive) | 20.4 µM (inactive) | 24.6 µM (inactive) | 5.45 µM (inactive) | > 47.3 µM (inactive) | 13.4 µM (inactive) | > 86.3 µM (inactive) | 28.8 µM (inactive) | 23.7 µM (inactive) | 15.7 µM (inactive) | 30.6 µM (inactive) | 34 µM (inactive) | 50.8 µM (inactive) | –
6 | CCO[C@@]1(COCc2ccccc2)OC(=O)C[C@@H]1N1C(=O)OC[C@@H]1c1ccccc1 | > 100 µM (inactive) | > 100 µM (inactive) | > 100 µM (inactive) | > 100 µM (inactive) | – | 25.8 µM (inactive) | > 100 µM (inactive) | > 100 µM (inactive) | > 100 µM (inactive) | 41.5 µM (inactive) | > 100 µM (inactive) | > 100 µM (inactive) | > 100 µM (inactive) | > 100 µM (inactive) | > 100 µM (inactive) | > 100 µM (inactive) | > 100 µM (inactive) | > 100 µM (inactive) | > 100 µM (inactive) | –
7 | CCOP(=O)(OCC)/C(=C/c1ccccc1)CC(C)=O | > 100 µM (inactive) | > 100 µM (inactive) | > 100 µM (inactive) | > 100 µM (inactive) | – | > 100 µM (inactive) | > 100 µM (inactive) | > 100 µM (inactive) | > 100 µM (inactive) | > 100 µM (inactive) | > 100 µM (inactive) | > 100 µM (inactive) | > 100 µM (inactive) | > 100 µM (inactive) | > 100 µM (inactive) | > 100 µM (inactive) | > 100 µM (inactive) | > 100 µM (inactive) | > 100 µM (inactive) | > 100 µM (inactive)
8 | COc1ccc(-c2nc(SCC(=O)N/N=C/c3ccc(N(C)C)cc3)[nH]c2-c2ccc(OC)cc2)cc1 | 74.8 µM (inactive) | 34.6 µM (inactive) | 33.4 µM (inactive) | > 100 µM (inactive) | – | > 100 µM (inactive) | > 100 µM (inactive) | 86.1 µM (inactive) | 37.9 µM (inactive) | 20.1 µM (inactive) | > 100 µM (inactive) | > 100 µM (inactive) | 99.5 µM (inactive) | > 100 µM (inactive) | > 100 µM (inactive) | 36.9 µM (inactive) | 26.8 µM (inactive) | > 100 µM (inactive) | 90.4 µM (inactive) | –
9 | c1ccc(C/C(=N\Nc2nc3ccccc3[nH]2)c2ccccn2)cc1 | 0.385 µM (active) | < 0.01 µM (active) | 0.166 µM (active) | – | – | 0.056 µM (active) | < 0.01 µM (active) | 2.89 µM (inactive) | < 0.01 µM (active) | < 0.01 µM (active) | 0.248 µM (active) | 0.196 µM (active) | – | < 0.0164 µM (active) | < 0.0347 µM (active) | < 0.0221 µM (active) | 0.0408 µM (active) | < 0.0107 µM (active) | – | 0.879 µM (active)
10 | CN(Cc1cnc2nc(N)nc(N)c2n1)c1ccc(C(=O)NCCS(=O)(=O)O)cc1 | > 100 µM (inactive) | > 100 µM (inactive) | – | > 100 µM (inactive) | 67.6 µM (inactive) | > 100 µM (inactive) | > 100 µM (inactive) | > 100 µM (inactive) | 91.6 µM (inactive) | > 100 µM (inactive) | > 100 µM (inactive) | > 100 µM (inactive) | > 100 µM (inactive) | > 100 µM (inactive) | > 100 µM (inactive) | > 100 µM (inactive) | > 100 µM (inactive) | > 100 µM (inactive) | > 100 µM (inactive) | > 100 µM (inactive)
11 | O=C1N[C@H]2[C@H](O)[C@H](O)[C@@H](O)[C@H](O)[C@@H]2c2cc3c(c(O)c21)OCO3 [PANCRATISTATIN] | 0.0372 µM (active) | 0.0439 µM (active) | 0.0434 µM (active) | 0.65 µM (active) | 0.106 µM (active) | 0.0331 µM (active) | 0.0516 µM (active) | 0.0336 µM (active) | 0.0297 µM (active) | 0.0376 µM (active) | 0.0493 µM (active) | 0.037 µM (active) | 0.144 µM (active) | 0.0622 µM (active) | 0.0352 µM (active) | 0.0339 µM (active) | 0.0272 µM (active) | 0.0429 µM (active) | – | –
